Earlier results in patent publication US20210299134A1, “TREATMENT OF B CELL MALIGNANCIES” (MEI Pharma, Inc., priority 2018, published 2021).

Assays:
TREGs = details: after administration of a single dose; cited from earlier work
[1] = cited from earlier work
B-cell malignancies = details: a day per week dosing after once daily dosing for two 28-day cycles; preliminary data; cited from earlier work

Compound	time to TREGs repopulation (TREGs)	plasma levels versus tissue levels ([1]; FIG. 6B)	plasma levels >IC90, share of time ([1]; once weekly dosing) [%]	incidence of severe irAEs on IS (B-cell malignancies)	tumor progression on IS (B-cell malignancies)
denileukin diftitox	approximately 14 days	–	–	–	–
CCOc1c([C@H](C)n2nc(C)c3c(N)ncnc32)cc(Cl)c(F)c1[C@@H]1CNC(=O)C1 [parsaclisib]	–	plasma approximates tissue levels	32	decrease in the incidence of severe irAEs	high rate of tumor progression
